This is an account of results in publication PMC5456363 (PLoS ONE, 2017).

For orientation: amount remaining means what is left of the initial amount, in per cent.

“And” between values parts separate entries of the source, which are not always exact repeats. Equal values may be shown once. “Also recorded” adds a separate entry of the source. Non-standard residues stand in square brackets, D forms with d. Residues, ends and D or L forms follow the SMILES beside them. *: point of attachment. Orn(α-tetramethylguanidino) = CN(C)C(=N[C@@H](CCCN)C(=O)*)N(C)C Bounds are passed on as bounds.

Data set [1] can be described thus: Stability and metabolites across fresh blood, serum and plasma (all six matrices). The conditions noted are these: fresh blood, serum, and plasma.
Method: Aqueous peptide solutions (3 g/L) were filled in a sterile syringe (1 mL, Dispomed Witt oHG, Gelnhausen, Deutschland) through the front end, the stainless-steel needle was attached, and blood (200 to 300 μL) was collected via cardiac puncture to obtain a peptide concentration of approximately 31,5 μmol/L. The syringe was carefully disconnected from the needle and sealed while keeping the needle in the heart. A second empty syringe was attached to the needle and 0.5 to 0.8 mL blood were collected. In parallel, the sealed syringe was gently shaken for one minute to mix the peptide solution with blood and further incubated on a Stuart Rotator SB3 (Barloworld, Scientific LTD, Stone, Staffordshire, U.K.) placed in an incubator at 37°C. […] The plasma sample designated as “blood” (B) was precipitated with trichloroacetic acid (TCA), as described below. Blood collected in the second syringe was transferred to a polypropylene tube (Eppendorf AG, Hamburg, Germany) and a BD Microtainer® serum separator tube (SST; Becton, Dickinson and Company). Polypropylene tubes were centrifuged immediately (12,000 x g, 2 to 4 min) to obtain “direct serum” (DS) as supernatant, whereas the serum separator tubes were incubated (room temperature, 1 h), centrifuged (12,000 x g, 2 min), and collected as “activated serum” (AS). Pooled mouse serum was purchased from PAA Laboratories GmbH (Pasching, Austria) and pooled CD-1 mouse plasma containing K2EDTA or lithium heparin were obtained from Innovative Research (Novi, MI, USA).
Peptides were mixed with serum or plasma to a final concentration of 31.5 μmol/L and incubated (37°C, 750 rpm; Thermomixer, Eppendorf AG, Hamburg, Germany). Aliquots (20 or 40 μL) taken after 0 and 60 min (0, 10 and 30 min for Api88) were mixed with TCA to obtain a final concentration of 3% (w/v) and incubated on ice (10 min). After centrifugation (12,000 x g, 5 min), the supernatant was neutralized with sodium hydroxide (1 mol/L) and stored at −20°C. Samples were analyzed by RP-HPLC on a Jupiter C18-column (internal diameter: 2 mm, length: 150 mm, particle size: 5 μm, pore size: 30 nm) using a linear aqueous acetonitrile gradient containing TFA (0.1%, v/v) as ion pair reagent. Peptides were detected by recording the absorbance at 214 nm and quantified by their peak areas relative to the initial peak areas (0 min). All stability tests were performed at least in triplicates.
Metabolites were identified on an Agilent 1100 LC system (Agilent Technologies, Santa Clara, CA, USA) coupled on-line via a UV-detector (absorbance recorded at 214 nm) to the electrospray ionization source on an ion trap mass spectrometer (ESI-IT-MS, Esquire HCT, Bruker Daltonics GmbH, Bremen, Germany). Samples were separated on an Aqua C18-column (inner diameter: 2 mm, length: 150 mm, particle size: 3 μm, pore size: 12.5 nm, Phenomenex; column temperature: 60°C) at a flow rate of 0.2 mL/min using a linear gradient of aqueous acetonitrile in the presence of formic acid (FA; 0.1%, v/v) as ion pair reagent. […] The ESI-IT-MS was operated in positive ion mode. Ionization was carried out at 365°C (source temperature) using nitrogen as curtain gas (40 psi) and dry gas (9 L/min). Mass spectra were acquired for an m/z range from 400 to 1300 at a scan rate of 8100 m/z-units per second in standard enhanced mode.
Data set [2] can be described thus: Peptide stability in EDTA plasma (EP). It counts as in vitro ADME, CD-1 mouse. The note with it: 37°C. How it is done:
(§1) All stability tests were performed at least in triplicates.

Data set [3] is described as follows: Peptide stability in fresh blood taken by cardiac puncture into a syringe containing the peptide (blood, B). It counts as in vitro ADME, CD-1 mice. How it is done: as §1
Data set [4] concerns the target T1, human α-thrombin (Homo sapiens, UniProt P00734).
T1 construct: with human α-Thrombin for 0, 1, and 24 hours
The experiment in a line: α-Thrombin stability assay. The class given is in vitro ADME. How it is done: Supplementary file pone.0178943.s003.tif: S3 Fig Stability of Api88, Api137, and LVPR-Onc112 against human α-thrombin. Chromatograms recorded after incubation of Api88 (a), Api137 (b), or LVPR-Onc112 (c) with human α-Thrombin for 0, 1, and 24 hours (UV absorbance). […] (TIF) Click here for additional data file.
S1 Text. Method α-Thrombin stability assay.

The nature of data set [5]: Peptide stability in heparin plasma (HP). The conditions noted are these: CD-1, mouse, pooled plasma containing lithium heparin, 37°C, read-out: intact peptide remaining relative to time zero. The class given is in vitro ADME, CD-1 mouse. How it is done:
as §1

Data set [6] in a line: Peptide stability in commercial serum (CS). The class given is in vitro ADME, mouse. The conditions noted are these: 37°C. How it is done:
as §1

Data set [7] is described as follows: Peptide stability in direct serum (DS). It counts as in vitro ADME, CD-1 mice. The note with it: 37°C. How it is done: as §1
Data set [8] in a line: Peptide stability in activated serum (AS). The class given is in vitro ADME, CD-1 mice. The conditions noted are these: 37°C. How it is done: as §1
The conditions of data set [9]: in vitro, mouse serum; cited from earlier work.
Data set [10] in a line: blood collected via cardiac puncture into a syringe containing the peptide solution (“blood”, B). The note with it: CD-1 mice, 37°C, up to 60 min.
Data set [11] can be described thus: “activated serum” (AS): serum separator tubes incubated (room temperature, 1 h), centrifuged. The note with it: CD-1 mice, 37°C, up to 60 min.
Data set [12] in a line: pooled CD-1 mouse plasma containing lithium heparin (heparin plasma, HP). The conditions noted are these: 37°C, up to 60 min.
A short description of data set [13]: Pooled mouse serum (PAA Laboratories), commercial serum (CS). The note with it: 37°C, up to 60 min.
The nature of data set [14]: “direct serum” (DS): blood in polypropylene tubes centrifuged immediately. The conditions noted are these: CD-1 mice, 37°C, up to 60 min.
Data set [15] in a line: 25% aqueous commercial serum. The note with it: cited from earlier work.
Data set [16] can be described thus: pooled CD-1 mouse plasma containing K2EDTA (EDTA plasma, EP). The conditions noted are these: 37°C, up to 60 min.
Data set [17] concerns human α-thrombin. The experiment in a line: human α-thrombin. The note with it: up to 24 hours.

With `CC[C@H](C)[C@H](NC(=O)[C@H](Cc1ccc(O)cc1)NC(=O)[C@@H](NC(=O)[C@@H]1CCCN1C(=O)[C@H](CCCNC(=N)N)NC(=O)[C@H](CC(N)=O)NC(=O)[C@H](CC(N)=O)NC(=O)[C@H](CCCN)N=C(N(C)C)N(C)C)C(C)C)C(=O)N1CCC[C@H]1C(=O)N[C@@H](CCCNC(=N)N)C(=O)N1CCC[C@H]1C(=O)N[C@@H](CCCNC(=N)N)C(=O)N1CCC[C@H]1C(=O)N1CCC[C@H]1C(=O)N[C@@H](Cc1c[nH]cn1)C(=O)N1CCC[C@H]1C(=O)N[C@@H](CCCNC(=N)N)C(=O)N[C@@H](CC(C)C)C(N)=O` [Api88, gu-ONNRPVYIPRPRPPHPRL-NH2] ({Orn(α-tetramethylguanidino)}-NNRPVYIPRPRPPHPRL-NH2), the Overall stability entry in [1] is recorded as “Low”. Further, the Sequential stability entry in data set [1] was “Blood > Plasma > Serum”. For the same compound, the fraction remaining at 10 min, 31.5 μmol/L in [2] (CD-1, mouse, pooled plasma containing K2EDTA, 10 min, read-out: intact peptide remaining relative to time zero) was 48 ± 4%; in data set [5] (10 min), 77 ± 5%; in data set [6] (mouse, commercial pooled serum, commercial serum, 10 min, read-out: intact peptide remaining relative to time zero), 10 ± 2%; in data set [7] (CD-1, mouse, direct serum (supernatant of blood centrifuged immediately), 10 min, read-out: intact peptide remaining relative to time zero) it was 11 ± 6%; in data set [8] (CD-1, mouse, 10 min, read-out: intact peptide remaining relative to time zero), 22 ± 5%. Further, the fraction remaining at 0.5 h, 31.5 μmol/L in data set [2] (CD-1, mouse, pooled plasma containing K2EDTA, 30 min, read-out: intact peptide remaining relative to time zero) is 5 ± 3%; in data set [5] (30 min) it was 36 ± 1%. In addition, the half-life at 31.5 μmol/L in data set [3] (CD-1, mouse, fresh whole blood taken by cardiac puncture, indicated by the recovery after 10 min, read-out: half-life time in fresh mouse blood (converted)) is roughly 1 h. For the same compound, the fraction remaining at 10 min in [3] (CD-1, mouse, fresh whole blood, blood, 37°C, 10 min, read-out: intact peptide remaining relative to time zero) worked out at 88 ± 14%. The amount remaining at 0.5 h in data set [3] (CD-1, mouse, fresh whole blood, blood, 37°C, 30 min, read-out: intact peptide remaining relative to time zero) was 30 ± 14%. Moreover, in data set [3] (blood versus reported serum half-life), the “half-life time in fresh mouse blood relative to that reported for serum” value worked out at 30 fold. Besides, the “intact peptide remaining relative to time zero” value is on record as 88 ± 15% in [3] (blood, 37°C, 10 min); “fully degraded” in [6] (commercial serum, 30 min); “fully degraded” in data set [7] (30 min); “fully degraded” in data set [8] (30 min). At human α-thrombin [4] (after one hour), the “proteolytic cleavage by human α-thrombin” value is recorded as “completely degraded”.

With `CC[C@H](C)[C@H](NC(=O)[C@H](Cc1ccc(O)cc1)NC(=O)[C@@H](NC(=O)[C@@H]1CCCN1C(=O)[C@H](CCCNC(=N)N)NC(=O)[C@H](CC(N)=O)NC(=O)[C@H](CC(N)=O)NC(=O)[C@H](CCCN)N=C(N(C)C)N(C)C)C(C)C)C(=O)N1CCC[C@H]1C(=O)N[C@@H](CCCNC(=N)N)C(=O)N1CCC[C@H]1C(=O)N[C@@H](CCCNC(=N)N)C(=O)N1CCC[C@H]1C(=O)N1CCC[C@H]1C(=O)N[C@@H](Cc1c[nH]cn1)C(=O)N1CCC[C@H]1C(=O)N[C@@H](CCCNC(=N)N)C(=O)N[C@@H](CC(C)C)C(=O)O` [Api137, gu-ONNRPVYIPRPRPPHPRL-OH] ({Orn(α-tetramethylguanidino)}-NNRPVYIPRPRPPHPRL-OH), the Overall stability entry in [1] is recorded as “High”. Further, the Sequential stability entry in [1] was “Blood = Plasma = Serum”. The “intact peptide remaining relative to time zero” value in [2] (1 h, 31.5 μmol/L) is no less than 94%; in [7] (1 h, 31.5 μmol/L), no less than 94%; in data set [8] (1 h, 31.5 μmol/L) it was no less than 94%. The “proteolytic cleavage by human α-thrombin” value at human α-thrombin [4] (after 24 h) was “remained mostly intact”. The “half-life time in mouse serum” value in data set [9] is on record as 6 h. Further, the share remaining at 1 h, 31.5 μmol/L was 83 ± 2% in data set [5] (1 h, 31.5 μmol/L) and 87 ± 9% in [6] (commercial pooled serum, commercial mouse serum, 1 h, 31.5 μmol/L, read-out: intact peptide remaining relative to time zero).

On to “AAYRVDKPPYLPRPRPPRrIYNr-NH2 (H-AAYRVDKPPYLPRPRPPR[dR]IYN[dR]-NH2; SMILES CC[C@H](C)[C@H](NC(=O)[C@@H](CCCNC(=N)N)NC(=O)[C@H](CCCNC(=N)N)NC(=O)[C@@H]1CCCN1C(=O)[C@@H]1CCCN1C(=O)[C@H](CCCNC(=N)N)NC(=O)[C@@H]1CCCN1C(=O)[C@H](CCCNC(=N)N)NC(=O)[C@@H]1CCCN1C(=O)[C@H](CC(C)C)NC(=O)[C@H](Cc1ccc(O)cc1)NC(=O)[C@@H]1CCCN1C(=O)[C@@H]1CCCN1C(=O)[C@H](CCCCN)NC(=O)[C@H](CC(=O)O)NC(=O)[C@@H](NC(=O)[C@H](CCCNC(=N)N)NC(=O)[C@H](Cc1ccc(O)cc1)NC(=O)[C@H](C)NC(=O)[C@H](C)N)C(C)C)C(=O)N[C@@H](Cc1ccc(O)cc1)C(=O)N[C@@H](CC(N)=O)C(=O)N[C@H](CCCNC(=N)N)C(N)=O)”, for which the fragment found is 5–23 [Onc112]; VDKPPYLPRPRPPRrIYNr-NH2 in data set [10]; 5–23 [Onc112]; VDKPPYLPRPRPPRrIYNr-NH2 in data set [11]; 5–23 [Onc112]; VDKPPYLPRPRPPRrIYNr-NH2 in data set [12]; 5–23 [Onc112]; VDKPPYLPRPRPPRrIYNr-NH2 in data set [13]; 5–23 [Onc112]; VDKPPYLPRPRPPRrIYNr-NH2 in [14]; “Onc112” in data set [15]. Besides, the fragment found in [16] was 5–23 [Onc112]; VDKPPYLPRPRPPRrIYNr-NH2.

On to “LVPRVDKPPYLPRPRPPRrIYNr-NH2 (H-LVPRVDKPPYLPRPRPPR[dR]IYN[dR]-NH2; SMILES CC[C@H](C)[C@H](NC(=O)[C@@H](CCCNC(=N)N)NC(=O)[C@H](CCCNC(=N)N)NC(=O)[C@@H]1CCCN1C(=O)[C@@H]1CCCN1C(=O)[C@H](CCCNC(=N)N)NC(=O)[C@@H]1CCCN1C(=O)[C@H](CCCNC(=N)N)NC(=O)[C@@H]1CCCN1C(=O)[C@H](CC(C)C)NC(=O)[C@H](Cc1ccc(O)cc1)NC(=O)[C@@H]1CCCN1C(=O)[C@@H]1CCCN1C(=O)[C@H](CCCCN)NC(=O)[C@H](CC(=O)O)NC(=O)[C@@H](NC(=O)[C@H](CCCNC(=N)N)NC(=O)[C@@H]1CCCN1C(=O)[C@@H](NC(=O)[C@@H](N)CC(C)C)C(C)C)C(C)C)C(=O)N[C@@H](Cc1ccc(O)cc1)C(=O)N[C@@H](CC(N)=O)C(=O)N[C@H](CCCNC(=N)N)C(N)=O)”, for which the fragment found result in data set [10] was “LVPR-Onc112(4–23); RVDKPPYLPRPRPPRrIYNr-NH2 and 5–23 [Onc112]; VDKPPYLPRPRPPRrIYNr-NH2”; in [11], “LVPR-Onc112(4–23); RVDKPPYLPRPRPPRrIYNr-NH2, minor and 5–23 [Onc112]; VDKPPYLPRPRPPRrIYNr-NH2”; in data set [12], “LVPR-Onc112(4–23); RVDKPPYLPRPRPPRrIYNr-NH2, minor and 5–23 [Onc112]; VDKPPYLPRPRPPRrIYNr-NH2”; in data set [13] it was “LVPR-Onc112(4–23); RVDKPPYLPRPRPPRrIYNr-NH2, minor and 5–23 [Onc112]; VDKPPYLPRPRPPRrIYNr-NH2”; in data set [14], “LVPR-Onc112(4–23); RVDKPPYLPRPRPPRrIYNr-NH2, minor and 5–23 [Onc112]; VDKPPYLPRPRPPRrIYNr-NH2”; in [15] it was “Onc112”. Besides, the fragment found entry in data set [16] was “LVPR-Onc112(4–23); RVDKPPYLPRPRPPRrIYNr-NH2, minor and 5–23 [Onc112]; VDKPPYLPRPRPPRrIYNr-NH2”. The cleaved bond result in the data set with human α-thrombin [17] is “C-terminal to Arg4 in LVPR-Onc112”.

As for “gu-ONNRPVYIPRPRPPHPRL-OH ({Orn(α-tetramethylguanidino)}-NNRPVYIPRPRPPHPRL-OH)”, the fragment found entry is reported as “Api137(1–17); gu-ONNRPVYIPRPRPPHPR-OH; also recorded: Api137(1–16); also recorded: Api137(1–15); also recorded: Api137(7–18)” in data set [10]; “Api137(1–17); also recorded: Api137(1–16); also recorded: Api137(1–15)” in data set [11]; “Api137(1–17), minor, 24 h” in the data set on human α-thrombin [17]; “Api137(1–17); also recorded: Api137(1–16); also recorded: Api137(1–15); also recorded: Api137(7–18)” in data set [12]; “Api137(1–17); gu-ONNRPVYIPRPRPPHPR-OH; also recorded: Api137(1–16); gu-ONNRPVYIPRPRPPHP-OH; also recorded: Api137(1–15)” in data set [13]; “Api137(1–17); gu-ONNRPVYIPRPRPPHPR-OH; also recorded: Api137(1–16); also recorded: Api137(1–15)” in [14]. In data set [16], the not cleaved is listed as ≥94% (one hour).
